Measurements: patent publication US20100179205A1, “Composition for Enhanced Antiparasitic Activity” (Intervet International B.V., priority 2006, published 2010)

Tested on: Rhipicephalus sanguineus nymphs
Experiment: Efficacy against Rhipicephalus sanguineus on infested guinea pigs, topical bath treatment
Type: in vivo
Conditions: for average number of detached ticks per animal (detachment effect): bath treatment, 24 hours after treatment, guinea pigs infested with 100 nymphs; for overall acaricidal efficacy against R. sanguineus-nymphs: compared to the control group; for average number of engorged ticks per animal: engorged ticks dropping from d4 to d8; for average number of dead ticks after detachment: mortality assessed 24 hours after detachment
Description: Efficacy against Rhipicephalus sanguineus
Guinea pigs were infested with 100 nymphs of Rhipicephalus sanguineus (d0). Guinea pigs (n=3) were treated topically (bath treatment) with atipamezol (7.8 ppm), amitraz (2.0 ppm; 3.9 ppm) and two combinations of both (7.8 ppm atipamezol+2.0 ppm amitraz; 7.8 ppm atipamezol+3.9 ppm amitraz), respectively (d1). The control group remained untreated.
The number of detached ticks was assessed 1, 3, 6 and 24 hours after treatment (detachment effect).
The mortality of detached ticks was assessed 24 hours after detachment.
The average number of engorged ticks dropping per animal from d4 to d8 was assessed to determine the overall acaricidal efficacy compared to the control group.

Structure (SMILES)	average number of detached ticks per animal (detachment effect) (2.0 ppm amitraz)	overall acaricidal efficacy against R. sanguineus-nymphs (2.0 ppm amitraz)	average number of engorged ticks per animal (2.0 ppm amitraz)	average number of dead ticks after detachment (2.0 ppm amitraz)	average number of detached ticks per animal (detachment effect) (3.9 ppm amitraz)	overall acaricidal efficacy against R. sanguineus-nymphs (3.9 ppm amitraz)	average number of engorged ticks per animal (3.9 ppm amitraz)	average number of dead ticks after detachment (3.9 ppm amitraz)	average number of detached ticks per animal (detachment effect) (7.8 ppm atipamezol)	overall acaricidal efficacy against R. sanguineus-nymphs (7.8 ppm atipamezol)	average number of engorged ticks per animal (7.8 ppm atipamezol)	average number of dead ticks after detachment (7.8 ppm atipamezol)	acaricidal/insecticidal effect (in words) (atipamezole alone)
Cc1ccc(N=CN(C)C=Nc2ccc(C)cc2C)c(C)c1 [amitraz, 1,5-di-(2,4-dimethylphenyl)-3-methyl-1,3,5-triazapenta-1,4-diene]	29.7	84%	8.7	24.3	43.7	100%	0	39.7					
CCC1(c2cnc[nH]2)Cc2ccccc2C1 [atipamezol, 4(5)-(2,3-dihydro-2-ethyl-1H-inden-2-yl)imidazole]									2.0	63%	20.7	1.3	does not show an acaricidal/insecticidal effect
